In US7351744B2, “Naphthalene derivatives as termite repellents and toxicants” (Board of Supervisors of Louisiana State University and …, priority 2003, dated 2008):

Key:
C. formosanus workers = experiment: Repellency, choice of treated and untreated filter paper in three-chambered containers; format: in vivo, Coptotermes formosanus; conditions: for concentration of strong repellency and significant reduction in feeding activity: alternative food choice, 15 days
From the text: Thirty-five transparent plastic containers (17.7 cm×8.0 cm×4.0 cm), Pioneer Packaging Co., North Dixon, Ky.), each with three chambers (8.0 cm×5.75 cm×4.0 cm), were used. An opening (3.5 cm×0.3 cm) was made at the bottom of each of the two inner walls, connecting the three chambers and allowing termites to move between the chambers. For each container, filter papers (Whatman #2, 5.5 cm diameter) were placed in the two lateral side chambers. For each treatment, five replicates (five containers) were used; for each replicate, one side chamber was marked “treated” and the other side chamber marked “untreated.”
A stock solution of 2′-acetonaphthone was prepared by dissolving 0.952 mg (AI) in 5 ml ethanol (190.4 mg/l). One-half of this solution was used to apply 500 μl to filter paper placed in the “treated” chamber to test the highest concentration of 2′-acetonaphthone, 4.0 μg/cm^2. The remaining volume, 2.5 ml, was diluted by adding an equal volume of ethanol. One-half of this new solution was used to add 500 μl to each of 5 filter papers in a “treated” chamber to achieve a concentration of 2.0 μg/cm^2. This dilution and application step was repeated four more times to make four additional concentrations equivalent to 1.0, 0.50, 0.250 and 0.125 μg/cm^2. Filter papers placed in the “untreated” chambers were left untreated. Five containers served as replicates for each tested concentration. Five containers served as controls, in which filter paper in the “treated” chamber received 500 μl ethanol, and that in the “untreated” chamber was left untreated.
Containers were kept at ambient conditons overnight for ethanol evaporation, and then all filter papers were weighed. In the middle chamber of all containers, 55 g wetted sand (50 g sand mixed with 5 ml DDH2O) was added, then packed and leveled to allow for clear visualization of tunnels along the bottom of the containers. Treated and untreated filter papers were wetted with 250 μl DDH2O. Then 100 workers and 5 soldiers from colony E were released onto the surface of the sand in the middle chamber.
The containers were covered and incubated for 12 days at 26.6° C. and 70% RH, and checked every 2 days for moisture content. The number of termites in the two lateral chambers was recorded daily for 3 days. On day 12, the bottom of each container was scanned (ScanJet 4c, Hewlett-Packard, Palo Alto, Calif.) and the images printed to measure and calculate the areas of tunnels. The experiment was ended on day 12, and the number of living termites in each container counted. The treated and untreated filter papers were gently cleaned using deionized water and a small brush to remove all debris. Filter papers were then oven dried at 60° C. for 3 h, and re-weighed to calculate food consumption.
A second trial was conducted with higher concentrations of 2′-acetonaphthone (5 to 40 μ/cm^2) using the above technique with some modifications. A stock solution (1900 mg/l) was prepared by dissolving 0.038 g (AI) 2′-acetonaphthone in 20 ml ethanol. Dilutions were made by taking 6.0, 4.5, 3.0, 1.5, and 0.75 ml from the original stock, and adjusting the volume of each to 6.0 ml with ethanol to yield the following concentrations: 1900.0, 1425.0, 950.0, 475.0, 237.5 mg/l, respectively. For each concentration, ten containers were used, with the filter paper in the “treated” chamber coated with 500 μl of the tested concentration. Filter papers placed in the “untreated” chamber were left untreated. For controls, ten containers were similarly handled except that the filter paper in the “treated” chamber was coated with 500 μl ethanol. The solvent was allowed to evaporate overnight at ambient conditions. The final concentrations of 2′-acetonaphthone on the filter papers were 5, 10, 20, 30, and 40 μg/cm^2.
The ten containers for each concentration were equally divided into two equal sub-groups. […]

[1] = test system: C. formosanus workers and soldiers; experiment: Treated filter paper as the sole food source; format: in vivo, Coptotermes formosanus; conditions: for Percent survival: colonies C and WB combined
Method: To assay the effect of 2′-acetonaphthone on termites when added to a sole food source, acute and cumulative toxicities of 2′-acetonaphthone-treated filter paper (Whatman #2) and balsa wood (Ochroma lagopus Swartz) slices (2.3 cm×4.0 cm) were evaluated. Seven concentrations (0, 1, 10, 50, 100, 500, and 1000 mg/l) were prepared in 100 ml ethanol. Six filter papers and six wood slices were soaked in each concentration for 4 h; control filter papers and wood slices were soaked only in ethanol. After treatment, the food sources were kept overnight at ambient conditions for solvent evaporation. Eighty-four plastic containers (5.5 cm diameter×3.7 cm height) were provided with 22 g of wetted sand (20 g sand (fine blasting sand #4, Cement Products Inc., Baton Rouge, La.) mixed with 2 ml DDH2O). Then either a filter paper or a wood slice was separately placed to fit on the surface of the wetted sand and wetted with DDH2O (250 μl). Into each container, fifty workers and 20 soldiers were placed on the surface of the filter paper or wood slice. For each concentration and food sourse, three replicates received termites from colony C, and three replicates received termites from colony WB. The containers were covered and incubated for 10 days at 27.4° C. and 70% RH. Containers were monitored everytwo days to ensure suitable moisture. On days 1, 5 and 10, the number of living workers and soldiers were counted. An average percent survival was calculated for each treatment. (See Tables 2 and 3).

CC(=O)c1ccc2ccccc2c1 [2′-acetonaphthone]
concentration of strong repellency and significant reduction in feeding activity (C. formosanus workers): ≥ 20 μg/cm^2
concentration of strong repellency and significant reduction in feeding activity (C. formosanus workers; listed as 2′-Acetonaphthone): ≥ 20.0 μg/cm^2
concentration of strong repellency and significant reduction in feeding activity (C. formosanus workers; listed as 2′-aceetonaphthone): ≥ 20.0 μg/cm^2
concentration of strong repellency and significant reduction in feeding activity (C. formosanus workers; listed as 2′-acetonapththone): ≥ 20 μg/cm^2
Survival rates after 15 days exposure (C. formosanus workers; concentrations ≧20 μg/cm^2, control 63.0%, difference not significant): 45.0-51.2%
concentration with significant differences in termite distribution between the chambers (C. formosanus workers; day 8): ≥ 5.0 μg/cm^2
concentration at which repellent (C. formosanus workers; untreated food source available): 5 μg/cm^2 filter paper
concentration with significantly more termites in the untreated chamber than in the treated chamber (C. formosanus workers; within the first 3 days): ≥ 10.0 μg/cm^2
Percent survival ([1]; filter paper 1 mg/l, Day 1, Soldier): 84.17 ± 9.26 a %
Percent survival ([1]; filter paper 1 mg/l, Day 1, Worker): 87.67 ± 5.83 a %
Percent survival ([1]; filter paper 1 mg/l, Day 5, Soldier): 58.33 ± 10.14 a %
Percent survival ([1]; filter paper 1 mg/l, Day 5, Worker): 73.0 ± 8.24 a %
Percent survival ([1]; filter paper 1 mg/l, Day 10, Soldier): 60.83 ± 13.07 a %
Percent survival ([1]; filter paper 1 mg/l, Day 10, Worker): 55.67 ± 8.98 a %
Percent survival ([1]; filter paper 10 mg/l, Day 1, Soldier): 80.0 ± 9.49 a %
Percent survival ([1]; filter paper 10 mg/l, Day 1, Worker): 84.0 ± 4.95 a %
Percent survival ([1]; filter paper 10 mg/l, Day 5, Soldier): 56.67 ± 12.49 a %
Percent survival ([1]; filter paper 10 mg/l, Day 5, Worker): 66.67 ± 9.71 ab %
Percent survival ([1]; filter paper 10 mg/l, Day 10, Soldier): 50.0 ± 12.91 a %
Percent survival ([1]; filter paper 10 mg/l, Day 10, Worker): 53.67 ± 12.92 a %
Percent survival ([1]; filter paper 50 mg/l, Day 1, Soldier): 72.50 ± 11.46 a %
Percent survival ([1]; filter paper 50 mg/l, Day 1, Worker): 80.33 ± 9.76 a %
Percent survival ([1]; filter paper 50 mg/l, Day 5, Soldier): 42.50 ± 9.56 a %
Percent survival ([1]; filter paper 50 mg/l, Day 5, Worker): 68.33 ± 11.56 ab %
Percent survival ([1]; filter paper 50 mg/l, Day 10, Soldier): 35.83 ± 8.41 a %
Percent survival ([1]; filter paper 50 mg/l, Day 10, Worker): 55.0 ± 12.07 a %
Percent survival ([1]; filter paper 100 mg/l, Day 1, Soldier): 73.33 ± 5.87 a %
Percent survival ([1]; filter paper 100 mg/l, Day 1, Worker): 80.0 ± 6.68 a %
Percent survival ([1]; filter paper 100 mg/l, Day 5, Soldier): 33.33 ± 11.53 a %
Percent survival ([1]; filter paper 100 mg/l, Day 5, Worker): 48.33 ± 10.33 b %
Percent survival ([1]; filter paper 100 mg/l, Day 10, Soldier): 17.50 ± 5.74 b %
Percent survival ([1]; filter paper 100 mg/l, Day 10, Worker): 40.67 ± 9.98 a %
Percent survival ([1]; filter paper 500 mg/l, Day 1, Soldier): 14.17 ± 5.23 b %
Percent survival ([1]; filter paper 500 mg/l, Day 1, Worker): 18.33 ± 6.60 b %
Percent survival ([1]; filter paper 500 mg/l, Day 5, Soldier): 0.0 ± 0.0 b %
Percent survival ([1]; filter paper 500 mg/l, Day 5, Worker): 0.0 ± 0.0 c %
Percent survival ([1]; filter paper 500 mg/l, Day 10, Soldier): 0.0 ± 0.0 c %
Percent survival ([1]; filter paper 500 mg/l, Day 10, Worker): 0.0 ± 0.0 b %
Percent survival ([1]; filter paper 1000 mg/l, Day 1, Soldier): 1.67 ± 1.67 b %
Percent survival ([1]; filter paper 1000 mg/l, Day 1, Worker): 6.67 ± 6.67 b %
Percent survival ([1]; filter paper 1000 mg/l, Day 5, Soldier): 0.0 ± 0.0 b %
Percent survival ([1]; filter paper 1000 mg/l, Day 5, Worker): 0.0 ± 0.0 c %
Percent survival ([1]; filter paper 1000 mg/l, Day 10, Soldier): 0.0 ± 0.0 c %
Percent survival ([1]; filter paper 1000 mg/l, Day 10, Worker): 0.0 ± 0.0 b %
concentration acutely toxic when applied to a sole food source ([1]; sole food source): 0.1 % (wt/v)
concentration at which termites showed decreased survival ([1]; sole food source impregnated (filter paper or wood slice)): 1000 mg/L
